# In patent publication US20130064812A1, “COMBINATION THERAPIES FOR HEMATOLOGIC MALIGNANCIES” (Gilead Calistoga LLC, priority 2011, published 2013):
# Columns and labels:
# [1] = system: mantle cell lymphoma lesions; assay: Lesion area in a patient with mantle cell lymphoma; assay type: in vivo, human; settings: 50 mg BID oral, 28 days (1 cycle)
# Description: This example provides data relating to the area of lesions of a patient with mantle cell lymphoma after 1 cycle of treatment (28 days) with the compound of formula I. The area of 6 lesions was measured prior to treatment and after a cycle of treatment. […] The results are summarized in a bar graph found in FIG. 12.
# [2] = system: IGROV-1 and OVCAR-3 cell lines; assay: Proliferation of ovarian cancer cell lines (AlamarBlue); assay type: cell-based; settings: IGROV-1, OVCAR-3, 48 hrs and 72 hrs
# Description: IGROV-1 and OVCAR-3 cell lines were grown in the presence of serum plus the indicated concentrations of the compound of formula I. Proliferation was measured in triplicate wells by AlamarBlue assay (Invitrogen) 96-well plates.
smiles,measurement,setting,value
"CC[C@H](Nc1ncnc2[nH]cnc12)c1nc2cccc(F)c2c(=O)n1-c1ccccc1 [Compound I, 5-fluoro-3-phenyl-2-[1-(9H-purin-6-ylamino)-propyl]-3H-quinazolin-4-one]",decrease in tumor burden,[1],44%
same,proliferation of ovarian cancer cell lines,[2],cytotoxic to two ovarian cancer cell lines
same,proliferation of ovarian cancer cell lines,[2]; listed as compound of formula I,inhibits proliferation of ovarian cancer cell lines
